What all share (format): cell-based, human
For assay [1], the system named is caveolin-1. In words: Immunohistochemistry for caveolin-1 in Caco-2 cells. As to conditions: four hours after administration. How it is done: Caco-2 cells were grown to just prior to confluency on collagen IV coated glass slides. Cells were treated with PBS, FGF1, FGF2 and FGF7, and were incubated at 37° C. in a 5% CO2 humidified incubator for 1 hour, 4 hours, 24 hours or 48 hours, as noted. Cells were washed with PBS, fixed with 3.7% formalin for 10 minutes and washed again with PBS. Cells were treated with 0.1% Triton x-100 for 5 minutes to extract lipids. Cells were washed with PBS and preincubated with PBS supplemented with 1% bovine serum albumin. Primary antibodies were added for 4 hours at room temperature, and cells were washed with PBS. […]
Cells, except those stained with phalloidin, were washed with PBS and stained with diamidino-2-phenylindole (DAPI) for 5 minutes at room temperature (Molecular Probes). […] Cells were examined by confocal microscopy (ZO-1 and phalloidin only), or by fluorescence microscopy. A Nikon HB10101AF fluorescence microscope was used and images were captured at room temperature using a Hitachi HVC20 camera and Scion image acquisition software. […]

The test system of assay [2] is occludin and ZO-1. In words: Immunostaining for occludin and ZO-1 in T84 cells. The settings on record: 100 ng/ml. Here is the method: To determine occludin and ZO-1 expression patterns, cells were plated on transwells as described for TER assays. Media from the basolateral chamber was removed every other day and replaced with new media. Resistances were measured for 10 days, and either 100 ng/ml FGF2, 100 ng/ml FGF7 or 10 μl PBS were added on days 10 and 12. On day 15, media was removed from both the apical and basolateral chambers, and the apical chamber was washed twice with PBS. One ml of 1% (w/v) paraformaldehyde in cacodylate buffer was added to each well, the plates were incubated for 10 minutes at room temperature, and the wells were washed once in PBS. One ml permeabilization media, consisting of 0.2% Triton X-100 and 2% BSA in PBS, was added to each well. After a 10 minute incubation at room temperature, wells were washed three times. 20 μl primary antibodies (rabbit polyclonal anti-human or occludin rabbit polyclonal anti-human ZO-1) diluted 1:20 in 1% goat serum, 0.25% sodium azide in PBS, were added to the apical chamber of three wells per antibody per ligand, and plates were incubated for 1 hour in a humidified chamber. […] Staining was then visualized by fluorescence microscopy. […] A Nikon HB10101AF fluorescence microscope was used to capture images at room temperature using a Hitachi HVC20 camera and Scion image acquisition software.

Assay [3] relates to E-cadherin. In words: Immunohistochemistry for E-cadherin in Caco-2 cells. As to conditions: for E-cadherin localization after 24 hours: vs 1 hour and vs PBS and FGF1. How it is done: Caco-2 cells were grown to just prior to confluency on collagen IV coated glass slides. Cells were treated with PBS, FGF1, FGF2 and FGF7, and were incubated at 37° C. in a 5% CO2 humidified incubator for 1 hour, 4 hours, 24 hours or 48 hours, as noted. Cells were washed with PBS, fixed with 3.7% formalin for 10 minutes and washed again with PBS. Cells were treated with 0.1% Triton x-100 for 5 minutes to extract lipids. Cells were washed with PBS and preincubated with PBS supplemented with 1% bovine serum albumin. Primary antibodies were added for 4 hours at room temperature, and cells were washed with PBS. Primary antibodies used were as follows: rabbit anti-human ZO-1 (1:160; Zymed Laboratories, San Francisco, Calif.); mouse anti-human syndecan-1 (1:300; Santa Cruz Biotechnology); goat anti-human Fz-1 (1:125; Santa Cruz Biotechnology); rabbit anti-human caveolin-1 (1:250; Santa Cruz Biotechnology); goat anti-human glypican-1 (1:100; Santa Cruz Biotechnology); mouse anti-human E-cadherin (1:250; Zymed Laboratories); rabbit anti-human β-catenin (1:125; Cell Signaling Technology, Beverly, Mass.); and rabbit anti-human phospho-β-catenin (Ser33/37/Thr41; 1:125; Cell Signaling Technology, Beverly, Mass.).
Cells were then treated with secondary antibodies, Texas Red-labeled phalloidin (Molecular Probes, Eugene, Oreg.) or FLAER-FL1 (1:400; Protox Biotech, Victoria, BC, Canada) as appropriate for 1 hour in the dark at room temperature. Secondary antibodies used were as follows: FITC-labeled chicken anti-rabbit (for ZO-1; 1:100; Molecular Probes, Eugene, Oreg.); Texas Red-labeled goat-anti mouse (for syndecan-1; 1:400; Molecular Probes); FITC-labeled donkey anti-mouse (for syndecan-1; 1:400; Molecular Probes, Eugene, Oreg.); FITC-labeled rabbit anti-mouse (for syndecan-1 and E-cadherin; 1:500; Molecular Probes, Eugene, Oreg.); Texas Red-labeled rabbit anti-goat (for Fz-1; 1:200; Jackson ImmunoResearch Laboratories, West Grove, Pa.); Texas Red-labeled goat anti-rabbit (for caveolin-1, β-catenin and phospho-β-catenin; 1:500; Molecular Probes); and Texas Red-labeled donkey anti-goat (for glypican-1; 1:80; Research Diagnostics, Flanders, N.J.).
Cells, except those stained with phalloidin, were washed with PBS and stained with diamidino-2-phenylindole (DAPI) for 5 minutes at room temperature (Molecular Probes). Controls of no antibody, primary antibody only, and secondary antibody only were performed. Cells were examined by confocal microscopy (ZO-1 and phalloidin only), or by fluorescence microscopy. A Nikon HB10101AF fluorescence microscope was used and images were captured at room temperature using a Hitachi HVC20 camera and Scion image acquisition software. Images were processed using Adobe Photoshop 7.0 and Adobe Illustrator 10.0.

For FGF1: Recombinant human FGF1 from Amgen, the caveolin-1 localization entry in assay [1] was “localized surrounding the nucleus”.
On to “FGF2: Recombinant human FGF2, produced as described”, for which the “membrane ruffling (tight junction protein staining)” value in assay [2] was “induced ruffling of cell membranes”. In assay [3], the “E-cadherin localization after 1 hour” value is “altered E-cadherin localization” and the “E-cadherin localization after 24 hours” value is “more cytoplasmic localization”.

B1: FGF7: Recombinant human FGF7 from Sigma (protein, UniProt P21781 32-194, looked up)
Fibroblast growth factor 7: CNDMTPEQMATNVNCSSPERHTRSYDYMEGGDIRVRRLFCRTQWYLRIDKRGKVKGTQEMKNNYNIMEIRTVAVGIVAIKGVESEFYLAMNKEGKLYAKKECNEDCNFKELILENHYNTYASAKWTHNGGEMFVALNQKGIPVRGKKTKKEQKTAHFLPMAIT
On to B1, for which the “membrane ruffling (tight junction protein staining)” value in assay [2] is recorded as “induced ruffling of cell membranes”. In addition, in assay [3], the “E-cadherin localization after 1 hour” value is on record as “altered E-cadherin localization” and the “E-cadherin localization after 24 hours” value was “more cytoplasmic localization”.
